Results from PubChem BioAssay (NCI).
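Growth conditions: 96-well plates. Treatment: test compound, 48 hours, 5 concentrations. Analysis: linear interpolation between bracketing concentrations; unreached endpoints set to highest concentration. TGI is the concentration that stops growth completely.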

Legend:
Assay in all cases: NCI tumour cell line growth inhibition, 48 h
LXFL 529 NSCLC = test system: LXFL 529 NSCLC
SNB-78 CNS = test system: SNB-78 CNS
MDA-N = test system: MDA-N
MDA-MB-231 breast = test system: MDA-MB-231 breast
T-47D breast = test system: T-47D breast
PC-3 prostate = test system: PC-3 prostate
786-0 renal = test system: 786-0 renal
HOP-92 NSCLC = test system: HOP-92 NSCLC
P388 leukemia = test system: P388 leukemia
SN12K1 renal = test system: SN12K1 renal
P388/ADR leukemia = test system: P388/ADR leukemia

CCO[C@]12C[C@H](OC)[C@@]3(O)CC(C1[C@H]3O)C13C4C2[C@H](OC)C1[C@](COC)(CN4CC)[C@H](O)C[C@@H]3OC (stereo partly specified)
TGI (LXFL 529 NSCLC): > 100 µM | TGI (SNB-78 CNS): > 100 µM

COc1ccc(N2C(=O)C3c4[nH]c5cccc(C)c5c4C4CCC(C(C)(C)C)CC4C3C2=O)cc1 (stereo unspecified)
TGI (MDA-N): > 10 µM | TGI (MDA-MB-231 breast): > 10 µM | TGI (T-47D breast): > 10 µM | TGI (PC-3 prostate): > 10 µM

CC(C)(C)C(=O)C(C(c1ccccc1)N1CCOCC1)N1CCOCC1 (stereo unspecified)
TGI (786-0 renal): > 100 µM | TGI (MDA-N): > 100 µM | TGI (HOP-92 NSCLC): > 100 µM | TGI (MDA-MB-231 breast): > 100 µM | TGI (T-47D breast): > 100 µM | TGI (PC-3 prostate): > 100 µM

CC(C)[C@](O)(C(=O)OCC1CC[N+]2([O-])CC[C@@H](O)C12)[C@H](C)O (stereo partly specified)
TGI (HOP-92 NSCLC): > 375 µM | TGI (SNB-78 CNS): > 375 µM | TGI (P388 leukemia): > 375 µM | TGI (SN12K1 renal): > 375 µM | TGI (P388/ADR leukemia): > 375 µM

OCCN(CCO)c1ccc2c(c1)Cc1ccccc1-2
TGI (786-0 renal): > 100 µM | TGI (MDA-N): > 100 µM | TGI (HOP-92 NSCLC): 73.1 µM | TGI (MDA-MB-231 breast): > 100 µM | TGI (T-47D breast): 57.8 µM | TGI (PC-3 prostate): > 100 µM

CCCCCCCCCCCCCCCCOCC(COP(=O)([O-])OCC[N+](C)(C)C)OCCCCCCCCCCCCCCCC (stereo unspecified)
TGI (HOP-92 NSCLC): > 100 µM | TGI (SNB-78 CNS): > 100 µM | TGI (P388 leukemia): > 100 µM | TGI (SN12K1 renal): > 100 µM | TGI (P388/ADR leukemia): > 100 µM

CCCCN1C(=O)NC(Cc2ccccc2)C1=O (stereo unspecified)
TGI (LXFL 529 NSCLC): > 100 µM | TGI (SNB-78 CNS): > 100 µM

CC(=O)Oc1ccccc1C(=O)O
TGI (786-0 renal): > 100 µM | TGI (MDA-N): > 100 µM | TGI (T-47D breast): > 100 µM | TGI (PC-3 prostate): > 100 µM

O=[n+]1c2ccccc2n([O-])c2cc(Br)ccc21
TGI (786-0 renal): > 100 µM | TGI (MDA-MB-231 breast): > 100 µM | TGI (T-47D breast): 45.9 µM

Cc1ccc(-c2csc(=Nc3c(C)n(C)n(-c4ccccc4)c3=O)n2CCO)cc1
TGI (MDA-N): > 100 µM | TGI (HOP-92 NSCLC): > 100 µM | TGI (MDA-MB-231 breast): > 100 µM | TGI (PC-3 prostate): > 100 µM
